# From patent publication US20250163104A1, “MACROCYCLIC IMMUNOMODULATORS” (priority 2021, published 2025)
# Where a SMILES comes first, the peptide text is derived from it. Bridges are numbered along the chain shown (N, C = ends). [ ]: non-standard residue; d: D form. The star is where a group is joined. Ala(morpholin-4-yl) = N[C@@H](CN1CCOCC1)C(=O)O; Phe(4-COOH) = N[C@@H](Cc1ccc(C(=O)O)cc1)C(=O)O; Bip = N[C@@H](Cc1ccc(-c2ccccc2)cc1)C(=O)O; Phe(3-Me) = Cc1cccc(C[C@H](N)C(=O)O)c1; Val(3-OH) = CC(C)(O)[C@H](N)C(=O)O; Cha = N[C@@H](CC1CCCCC1)C(=O)O; Carboxymethyl = O=C(O)C*; Nle = CCCC[C@H](N)C(=O)O; Orn = NCCC[C@H](N)C(=O)O; Pra = C#CC[C@H](N)C(=O)O; Dab = NCC[C@H](N)C(=O)O; Abu = CC[C@H](N)C(=O)O; Dap = NC[C@H](N)C(=O)O; Propargyl = C#CC*
# Target: T1, human PD-1 / PD-L1-Ig binding on Jurkat cell line over-expressing human PD-1 (Jurkat-PD-1) (Homo sapiens, UniProt Q15116)
# T1 construct: expressed in transfected cells; host or cells: Jurkat
# T1 sequence (Q15116 25-288): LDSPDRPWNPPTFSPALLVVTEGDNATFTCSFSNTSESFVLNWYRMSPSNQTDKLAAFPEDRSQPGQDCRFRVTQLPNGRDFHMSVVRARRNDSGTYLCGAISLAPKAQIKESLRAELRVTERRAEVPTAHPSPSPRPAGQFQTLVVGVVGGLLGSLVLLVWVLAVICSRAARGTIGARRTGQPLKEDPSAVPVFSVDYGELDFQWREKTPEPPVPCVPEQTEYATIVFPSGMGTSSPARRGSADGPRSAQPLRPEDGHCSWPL
# Assay: Jurkat-PD-1 Cell Binding High-Content Screening Assay (CBA)
# Format: cell-based
# Settings: Jurkat-PD-1 cells, PE-labeled PD-L1-Ig 20 nM final; read-out: Jurkat HPD1_PDL1 IC50
# How it was run: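 Jurkat cells over-expressing human PD-1, in DMEM/10% FCS, pre-incubated with compound 2 h at 37° C. PE-labeled human PD-L1-Ig (20 nM final) added for 1 h; cells fixed in paraformaldehyde with Hoechst 33342 nuclear stain, washed, and bound fluorescence quantified by high-content imaging.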
row,IC50,Compound
1,1.2 nM,C#CCOc1ccc(C[C@@H]2NC(=O)[C@H](Cc3cccc(C)c3)NC(=O)[C@H](CC(=O)O)NC(=O)[C@H](Cc3ccc(C(=O)O)cc3)NC(=O)[C@H](CCCC)NC(=O)CSC[C@@H](C(=O)N[C@@H](CCN)C(N)=O)NC(=O)[C@H](CCC(=O)O)NC(=O)[C@H](C(C)C)NC(=O)[C@H](CC3CCCCC3)NC(=O)[C@H](CCN)NC(=O)[C@@H](CC(C)C)NC(=O)[C@H](CCCN)NC(=O)[C@H](Cc3ccc(C(=O)O)cc3)NC(=O)[C@H](Cc3ccc(-c4ccccc4)cc3)NC2=O)cc1 [Compound 1842] ({CH2CO}-[Nle][Phe(4-COOH)]D[Phe(3-Me)]Y(Propargyl)[Bip][Phe(4-COOH)][Orn][dL][Dab][Cha]VEC[Dab]-NH2; thioether N-14)
2,8.3 nM,C#CC[C@H](NC(=O)[C@H](CCN)NC(=O)[C@@H]1CSCC(=O)N[C@@H](CCCN)C(=O)N[C@@H](Cc2ccc(C(=O)O)cc2)C(=O)N[C@@H](CC(=O)O)C(=O)N[C@@H](Cc2cccc(C)c2)C(=O)N[C@@H](Cc2ccc(C(=O)O)cc2)C(=O)N[C@@H](Cc2ccc(-c3ccccc3)cc2)C(=O)N[C@@H](Cc2ccc(C(=O)O)cc2)C(=O)N[C@@H](CCCN)C(=O)N[C@H](CC(C)C)C(=O)N[C@@H](CCN)C(=O)N[C@@H](CC2CCCCC2)C(=O)N[C@@H](C(C)(C)O)C(=O)N[C@@H](CO)C(=O)N1)C(N)=O [Compound 1846] ({CH2CO}-[Orn][Phe(4-COOH)]D[Phe(3-Me)][Phe(4-COOH)][Bip][Phe(4-COOH)][Orn][dL][Dab][Cha][Val(3-OH)]SC[Dab][Pra]-NH2; thioether N-14)
3,8.3 nM,C#CC[C@H](NC(=O)[C@H](CCN)NC(=O)[C@@H]1CSCC(=O)N[C@@H](CN)C(=O)N[C@@H](Cc2ccc(C(=O)O)cc2)C(=O)N[C@@H](CC(=O)O)C(=O)N[C@@H](Cc2cccc(C)c2)C(=O)N[C@@H](Cc2ccc(C(=O)O)cc2)C(=O)N[C@@H](Cc2ccc(-c3ccccc3)cc2)C(=O)N[C@@H](Cc2ccc(C(=O)O)cc2)C(=O)N[C@@H](CCCN)C(=O)N[C@H](CC(C)C)C(=O)N[C@@H](CCN)C(=O)N[C@@H](CC2CCCCC2)C(=O)N[C@@H](C(C)(C)O)C(=O)N[C@@H](Cc2cnc[nH]2)C(=O)N1)C(N)=O [Compound 1848] ({CH2CO}-[Dap][Phe(4-COOH)]D[Phe(3-Me)][Phe(4-COOH)][Bip][Phe(4-COOH)][Orn][dL][Dab][Cha][Val(3-OH)]HC[Dab][Pra]-NH2; thioether N-14)
4,5.2 nM,C#CC[C@H](NC(=O)[C@H](CCN)NC(=O)[C@@H]1CSCC(=O)N[C@@H](CCN)C(=O)N[C@@H](Cc2ccc(C(=O)O)cc2)C(=O)N[C@@H](CC(=O)O)C(=O)N[C@@H](Cc2cccc(C)c2)C(=O)N[C@@H](Cc2ccc(C(=O)O)cc2)C(=O)N[C@@H](Cc2ccc(-c3ccccc3)cc2)C(=O)N[C@@H](Cc2ccc(C(=O)O)cc2)C(=O)N[C@@H](CCCN)C(=O)N[C@H](CC(C)C)C(=O)N[C@@H](CCN)C(=O)N[C@@H](CC2CCCCC2)C(=O)N[C@@H](C(C)(C)O)C(=O)N[C@@H](CCCN)C(=O)N1)C(N)=O [Compound 1850] ({CH2CO}-[Dab][Phe(4-COOH)]D[Phe(3-Me)][Phe(4-COOH)][Bip][Phe(4-COOH)][Orn][dL][Dab][Cha][Val(3-OH)][Orn]C[Dab][Pra]-NH2; thioether N-14)

# Continued, compound first:
row,Compound,IC50
1,C#CCOc1ccc(C[C@@H]2NC(=O)[C@H](Cc3ccc(-c4ccccc4)cc3)NC(=O)[C@H](Cc3ccc(C(=O)O)cc3)NC(=O)[C@H](Cc3cccc(C)c3)NC(=O)[C@H](CC(=O)O)NC(=O)[C@H](Cc3ccc(C(=O)O)cc3)NC(=O)[C@H](CC)NC(=O)CSC[C@@H](C(=O)N[C@@H](CCN)C(N)=O)NC(=O)[C@H](CCC(=O)O)NC(=O)[C@H](C(C)C)NC(=O)[C@H](CC3CCCCC3)NC(=O)[C@H](CCN)NC(=O)[C@@H](CC(C)C)NC(=O)[C@H](CCCN)NC2=O)cc1 [Compound 1839] ({CH2CO}-[Abu][Phe(4-COOH)]D[Phe(3-Me)][Phe(4-COOH)][Bip]Y(Propargyl)[Orn][dL][Dab][Cha]VEC[Dab]-NH2; thioether N-14),2.3 nM
2,C#CCOc1ccc(C[C@@H]2NC(=O)[C@H](Cc3cccc(C)c3)NC(=O)[C@H](CC(=O)O)NC(=O)[C@H](Cc3ccc(OCC(=O)O)cc3)NC(=O)[C@H](CC)NC(=O)CSC[C@@H](C(=O)N[C@@H](CCN)C(N)=O)NC(=O)[C@H](CCC(=O)O)NC(=O)[C@H](C(C)C)NC(=O)[C@H](CC3CCCCC3)NC(=O)[C@H](CCN)NC(=O)[C@@H](CC(C)C)NC(=O)[C@H](CCCN)NC(=O)[C@H](Cc3ccc(OCC(=O)O)cc3)NC(=O)[C@H](Cc3ccc(-c4ccccc4)cc3)NC2=O)cc1 [Compound 1840] ({CH2CO}-[Abu]Y(Carboxymethyl)D[Phe(3-Me)]Y(Propargyl)[Bip]Y(Carboxymethyl)[Orn][dL][Dab][Cha]VEC[Dab]-NH2; thioether N-14),3.4 nM
3,C#CCOc1ccc(C[C@@H]2NC(=O)[C@H](Cc3cccc(C)c3)NC(=O)[C@H](CC(=O)O)NC(=O)[C@H](Cc3ccc(C(=O)O)cc3)NC(=O)[C@H]([C@@H](C)O)NC(=O)CSC[C@@H](C(=O)N[C@@H](CCN)C(N)=O)NC(=O)[C@H](CCC(=O)O)NC(=O)[C@H](C(C)C)NC(=O)[C@H](CC3CCCCC3)NC(=O)[C@H](CCN)NC(=O)[C@@H](CC(C)C)NC(=O)[C@H](CCCN)NC(=O)[C@H](Cc3ccc(C(=O)O)cc3)NC(=O)[C@H](Cc3ccc(-c4ccccc4)cc3)NC2=O)cc1 [Compound 1841] ({CH2CO}-T[Phe(4-COOH)]D[Phe(3-Me)]Y(Propargyl)[Bip][Phe(4-COOH)][Orn][dL][Dab][Cha]VEC[Dab]-NH2; thioether N-14),3.9 nM
4,C#CCOc1ccc(C[C@@H]2NC(=O)[C@H](Cc3ccc(-c4ccccc4)cc3)NC(=O)[C@H](Cc3ccc(OCC(=O)O)cc3)NC(=O)[C@H](Cc3cccc(C)c3)NC(=O)[C@H](CC(=O)O)NC(=O)[C@H](Cc3ccc(OCC(=O)O)cc3)NC(=O)[C@H](CC)NC(=O)CSC[C@@H](C(=O)N[C@@H](CCN)C(N)=O)NC(=O)[C@H](CCC(=O)O)NC(=O)[C@H](C(C)C)NC(=O)[C@H](CC3CCCCC3)NC(=O)[C@H](CCN)NC(=O)[C@@H](CC(C)C)NC(=O)[C@H](CCCN)NC2=O)cc1 [Compound 1843] ({CH2CO}-[Abu]Y(Carboxymethyl)D[Phe(3-Me)]Y(Carboxymethyl)[Bip]Y(Propargyl)[Orn][dL][Dab][Cha]VEC[Dab]-NH2; thioether N-14),8.3 nM
5,C#CCOc1ccc(C[C@@H]2NC(=O)[C@H](Cc3ccc(-c4ccccc4)cc3)NC(=O)[C@H](Cc3ccc(C(=O)O)cc3)NC(=O)[C@H](Cc3cccc(C)c3)NC(=O)[C@H](CC(=O)O)NC(=O)[C@H](Cc3ccc(C(=O)O)cc3)NC(=O)[C@H](Cc3ccc(OCC(=O)O)cc3)NC(=O)CSC[C@@H](C(=O)N[C@@H](CCN)C(N)=O)NC(=O)[C@H](CCC(=O)O)NC(=O)[C@H](C(C)C)NC(=O)[C@H](CC3CCCCC3)NC(=O)[C@H](CCN)NC(=O)[C@@H](CC(C)C)NC(=O)[C@H](CCCN)NC2=O)cc1 [Compound 1844] ({CH2CO}-Y(Carboxymethyl)[Phe(4-COOH)]D[Phe(3-Me)][Phe(4-COOH)][Bip]Y(Propargyl)[Orn][dL][Dab][Cha]VEC[Dab]-NH2; thioether N-14),13.2 nM
6,C#CC[C@H](NC(=O)[C@H](CCN)NC(=O)[C@@H]1CSCC(=O)N[C@@H](CN)C(=O)N[C@@H](Cc2ccc(C(=O)O)cc2)C(=O)N[C@@H](CC(=O)O)C(=O)N[C@@H](Cc2cccc(C)c2)C(=O)N[C@@H](Cc2ccc(C(=O)O)cc2)C(=O)N[C@@H](Cc2ccc(-c3ccccc3)cc2)C(=O)N[C@@H](Cc2ccc(C(=O)O)cc2)C(=O)N[C@@H](CCCN)C(=O)N[C@H](CC(C)C)C(=O)N[C@@H](CCN)C(=O)N[C@@H](CC2CCCCC2)C(=O)N[C@@H](C(C)(C)O)C(=O)N[C@@H](CO)C(=O)N1)C(N)=O [Compound 1845] ({CH2CO}-[Dap][Phe(4-COOH)]D[Phe(3-Me)][Phe(4-COOH)][Bip][Phe(4-COOH)][Orn][dL][Dab][Cha][Val(3-OH)]SC[Dab][Pra]-NH2; thioether N-14),7.3 nM
7,C#CC[C@H](NC(=O)[C@H](CCN)NC(=O)[C@@H]1CSCC(=O)N[C@@H](CN2CCOCC2)C(=O)N[C@@H](Cc2ccc(C(=O)O)cc2)C(=O)N[C@@H](CC(=O)O)C(=O)N[C@@H](Cc2cccc(C)c2)C(=O)N[C@@H](Cc2ccc(C(=O)O)cc2)C(=O)N[C@@H](Cc2ccc(-c3ccccc3)cc2)C(=O)N[C@@H](Cc2ccc(C(=O)O)cc2)C(=O)N[C@@H](CCCN)C(=O)N[C@H](CC(C)C)C(=O)N[C@@H](CCN)C(=O)N[C@@H](CC2CCCCC2)C(=O)N[C@@H](C(C)(C)O)C(=O)N[C@@H](CO)C(=O)N1)C(N)=O [Compound 1847] ({CH2CO}-[Ala(morpholin-4-yl)][Phe(4-COOH)]D[Phe(3-Me)][Phe(4-COOH)][Bip][Phe(4-COOH)][Orn][dL][Dab][Cha][Val(3-OH)]SC[Dab][Pra]-NH2; thioether N-14),2.1 nM
8,C#CC[C@H](NC(=O)[C@H](CCN)NC(=O)[C@@H]1CSCC(=O)N[C@@H](CCN)C(=O)N[C@@H](Cc2ccc(C(=O)O)cc2)C(=O)N[C@@H](CC(=O)O)C(=O)N[C@@H](Cc2cccc(C)c2)C(=O)N[C@@H](Cc2ccc(C(=O)O)cc2)C(=O)N[C@@H](Cc2ccc(-c3ccccc3)cc2)C(=O)N[C@@H](Cc2ccc(C(=O)O)cc2)C(=O)N[C@@H](CCCN)C(=O)N[C@H](CC(C)C)C(=O)N[C@@H](CCN)C(=O)N[C@@H](CC2CCCCC2)C(=O)N[C@@H](C(C)(C)O)C(=O)N[C@@H](Cc2cnc[nH]2)C(=O)N1)C(N)=O [Compound 1849] ({CH2CO}-[Dab][Phe(4-COOH)]D[Phe(3-Me)][Phe(4-COOH)][Bip][Phe(4-COOH)][Orn][dL][Dab][Cha][Val(3-OH)]HC[Dab][Pra]-NH2; thioether N-14),7.8 nM
